# Patent publication US12258308B2, “Benzene derivative” (ONO PHARMACEUTICAL CO., LTD., priority 2018, dated 2025)
# Assays:
# [1] = tested on: streptozotocin-induced rat model; assay: Test using streptozotocin-induced rat model (nociceptive threshold, von Frey); assay type: in vivo; settings: for Nociceptive threshold improve rate (%) 7 days after withdrawal of administration: 0.3 mg/kg oral once per day day 14 to 28, 35 days after STZ; for Nociceptive threshold improve rate (%) After initial single administration: 14 days after STZ, 2 hours after administration; for Nociceptive threshold improve rate (%) 7 days after start of administration: 21 days after STZ; for Nociceptive threshold improve rate (%) 14 days after start of administration: 28 days after STZ
# Experimental: Biological Experiment Example 2: Test Using Streptozotocin-Induced Rat Model
# In order to evaluate the therapeutic effect of each of the compounds of the present invention on diabetic peripheral neuropathy, an in vivo test using a streptozotocin model was carried out.
# A model was produced by intravenously administering streptozotocin (abbreviated as “STZ”, hereinafter) one time at a dose amount of 55 mg/kg to a rat.
# (2) Measurement of Nociceptive Threshold
# The rat was placed in a clear acryl measurement cage once or more times for 10 minutes or longer until the administration of STZ started. In this manner, the rat was acclimated to the measurement environment. Eight von Frey filaments respectively having weights of 0.4, 0.6, 1, 2, 4, 6, 8 and 15 g were applied vertically to a hindpaw of the rat from under a metallic mesh floor. When a quick escape or flinching reaction was observed, it was determined that a positive reaction occurred (i.e., “response was observed”). Each of the compounds of the present invention was administered orally once per day in a period from day 14 to day 28 after the administration of STZ, wherein the dose amount of each of the compounds was 0.03, 0.3 or 3 mg/kg. A nociceptive threshold was measured 2 hours after the administration of each of the compounds of the present invention at the timings of before the administration of STZ, 14 days after the administration of STZ (i.e., the day of the start of the administration of each of the compounds of the present invention), 21 days after the administration of STZ (i.e., 7 days after the start of the administration of the compound), 28 days after the administration of STZ (i.e., 14 days after the start of the administration of the compound), and 35 days after the administration of STZ (i.e., 7 days after the withdrawal of the administration of the compound).
# The nociceptive threshold was measured by the up-down method in accordance with the method of Chaplan et. al. (J Neurosci Methods. 1994; 53:55-63). The rate of improvement in the nociceptive threshold was calculated in accordance with the following formula. Nociceptive threshold improve rate (%)=(nociceptive threshold on each of the number of days elapsed after administration of STZ−B)/(A−B)×100 [Math 2] • A: Nociceptive threshold before administration of STZ • B: Nociceptive threshold on 14 days elapsed after administration of STZ (Results)
# The results of the nociceptive thresholds and the nociceptive threshold improve rates obtained when each of the compounds of the present invention was administered at a dose amount of 0.3 mg/kg are shown in the FIGURE and Table 2, respectively. With respect to all of the compounds, a potent pain relief effect against peripheral neuropathy was observed. With respect to the compound of Example 11, for example, the improvement in the nociceptive threshold was observed from 7 days after the start of the administration of the compound, and this effect lasted even 7 days after the withdrawal of the administration.
# [2] = tested on: rat Schwann cells; assay: In vitro test using Schwann cells (Schwann cell differentiation promotion, MAG immunostaining); assay type: cell-based; settings: Rattus norvegicus, 72 h, 3 days, MAG-positive area/cell nuclei; for activity at 0.3 µM: compound 0.3 μmol/L, read-out: Schwann cell differentiation promotion rate (% of vehicle) 0.3 μmol/L; for activity at 3 µM: compound 3 μmol/L, read-out: Schwann cell differentiation promotion rate (% of vehicle) 3 μmol/L
# Experimental: Biological Experiment Example 1: In Vitro Test Using Schwann Cells
# • (1) Preparation of rat Schwann cells
# A dorsal root ganglion (abbreviated as “DRG”, hereinafter) was excised from a newborn rat aged 0 to 2 days in a clean bench and was collected in DMEM. After the collection, the tube was centrifuged at 400 g, at room temperature for 3 minutes, then a supernatant was discarded, and a 0.25% collagenase solution was added. There resultant solution was incubated at 37° C. for 30 minutes to disperse and separate the excised DRG, and was then centrifuged at room temperature at 400 g for 3 minutes, then a supernatant was discarded, and then 0.25% Trypsin/EDTA and DNaseI were added. After the incubation at 37° C. for 30 minutes, trypsin was inactivated with DMEM supplemented with 10% FBS (10% FBS-DMEM), and centrifugation was carried out at room temperature at 400 g for 3 minutes. A supernatant was discarded, then 10% FBS-DMEM was added to the residue to prepare a cell suspension, and then the cell suspension was allowed to pass through a filter (diameter: 70 μm). The number of cells in the cell suspension which passed through the filter was counted to prepare a solution having a concentration of 2.0×10^5 cells/mL, and the suspension was seeded in a poly-D-lysine-coated 96-well black-clear plate in an amount of 100 μL/well and was then statically cultured in a CO2 incubator under the conditions including 5% of CO2, 95% of air and 37° C.
# The culture medium in the cell culture plate was removed by suction using an aspirator, and then DMEM supplemented with 1% dialyzed FBS and 100 μmol/L dibutyryl cyclic AMP was added. Subsequently, a solution of a compound of the present invention dissolved in DMSO was added, and the resultant solution was statically cultured in a C02 incubator under the conditions including 5% of C02, 95% of air and a temperature of 37° C. The final concentration of the compound of the present invention in each well in the cell culture plate was adjusted to 0.1, 0.3, 1 or 3 μmol/L.
# Three days after the treatment with the compound, formaldehyde was added to each well in the cell culture plate, and the cell culture plate was allowed to stand at room temperature for 30 minutes or longer. A supernatant was discarded, and then a 0.3% tritonX-100 solution was added to each well, and then the cell culture plate was allowed to stand at room temperature for 20 minutes or longer. A supernatant was discarded, then a 5-μg/mL anti-myeline-associated glycoprotein antibody (anti-MAG antibody) solution was added to each well, and then the cell culture plate was allowed to stand at room temperature for 60 minutes or longer or at 4° C. (acceptable range: 1 to 9° C.) overnight. Each well was washed with a 0.1% tritonX-100 solution three times, then a 10-μg/mL Alexa fluor 488 anti-mouse IgG solution was added to each well, and then the cell culture plate was allowed to stand at room temperature for 60 or longer or at 4° C. overnight. Each well was washed with a 0.1% tritonX-100 solution four times, and then a 1-μg/mL Hoechst33342 solution was added to each well to stain nuclei.
# The Mag-positive area and the number of cell nuclei in a fluorescent image were calculated. With respect to each of the MAG-positive area and the number of cell nuclei, the sum total of values obtained in 5 viewing fields/well was determined. The values were employed as a value for the MAG-positive area and a value for the number of cell nuclei, respectively, in each well. Subsequently, a value determined by dividing the value for the MAG-positive area in each well by the value for the number of cell nuclei in the well (i.e., MAG/cell nuclei numerical value) was calculated. The Schwann cell differentiation promotion rate was determined for each of the vehicles in accordance with the following formula. […]
Structure (SMILES),Nociceptive threshold improve rate (%) 7 days after withdrawal of administration [1],Nociceptive threshold improve rate (%) After initial single administration ([1]; 0.3 mg/kg oral once per day),Nociceptive threshold improve rate (%) 7 days after start of administration ([1]; 0.3 mg/kg oral once per day),Nociceptive threshold improve rate (%) 14 days after start of administration ([1]; 0.3 mg/kg oral once per day),activity at 0.3 µM [2],activity at 3 µM [2],"Pain relief effect against peripheral neuropathy ([1]; 0.3 mg/kg oral once per day, STZ rat)"
"O=C(O)CCc1ccccc1OCC[C@@H](O)CCc1cccc(C(O)Cc2ccccc2)c1 (stereo in doubt) [Example 36, 3-[2-[(3S)-3-Hydroxy-5-[3-[(1R)-1-hydroxy-2-phenylethyl]phenyl]pentoxy]phenyl]propanoic acid]",57.4 ± 10.74%,3.6 ± 7.07%,57.1 ± 13.78%,64.2 ± 13.02%,126%,732%,–
"O=C(O)CCc1ccccc1OCC[C@@H](O)CCc1cccc(C(O)Cc2ccccc2)c1 (stereo in doubt) [Example 37, 3-[2-[(3S)-3-Hydroxy-5-[3-[(1S)-1-hydroxy-2-phenylethyl]phenyl]pentoxy]phenyl]propanoic acid]",58.7 ± 19.84%,−11.9 ± 10.78%,61.3 ± 16.58%,78.9 ± 9.85%,171%,915%,–
"O=C(O)CCc1ccccc1OCC[C@@H](O)/C=C/c1cccc(NS(=O)(=O)c2ccccc2)c1 [Example 11, 3-[2-[(E,3R)-5-[3-(Benzenesulfonamido)phenyl]-3-hydroxypent-4-enoxy]phenyl]propanoic acid]",41.1 ± 13.71%,−14.6 ± 6.37%,26.6 ± 9.30%,27.1 ± 8.39%,114%,248%,a sustained pain relief effect was confirmed
"O=C(O)CCc1ccccc1OCC[C@@H](O)/C=C/c1cccc(NC(=O)c2ccccc2)c1 [Example 12(1), 3-[2-[(E,3R)-5-(3-Benzamidophenyl)-3-hydroxypent-4-enoxy]phenyl]propanoic acid]",9.1 ± 13.37%,6.2 ± 5.72%,17.4 ± 17.19%,44.6 ± 11.54%,120%,274%,–
"O=C(O)CCc1ccccc1OCC[C@@H](O)/C=C/c1cccc2c1CCN2S(=O)(=O)c1ccccc1 [Example 13(15), 3-[2-[(E,3R)-5-[1-(Benzenesulfonyl)-2,3-dihydroindol-4-yl]-3-hydroxypent-4-enoxy]phenyl]propanoic Acid]",7.1 ± 9.51%,−15.4 ± 14.26%,15.9 ± 7.17%,8.5 ± 11.50%,219%,326%,–
"O=C(O)CCc1ccccc1OCC[C@@H](O)/C=C/c1ccc2c(c1)CN(S(=O)(=O)c1ccccc1)C2 [Example 13(16), 3-[2-[(E,3R)-5-[2-(Benzenesulfonyl)-1,3-dihydroisoindol-5-yl]-3-hydroxypent-4-enoxy]phenyl]Propanoic Acid]",−7.8 ± 14.90%,−6.0 ± 3.87%,25.8 ± 5.28%,29.6 ± 8.19%,170%,377%,–
"O=C(O)CCc1ccccc1OCC[C@@H](O)/C=C/c1cccc(NS(=O)(=O)C2CCCC2)c1 [Example 74(13), 3-[2-[(E,3R)-5-[3-(Cyclopentylsulfonylamino)phenyl]-3-hydroxypent-4-enoxy]phenyl]propanoic acid]",76.3 ± 13.41%,2.6 ± 1.69%,28.3 ± 7.44%,57.3 ± 17.63%,79.9%,184%,–
"O=C(O)CCc1ccccc1OCCOCCc1cccc(NS(=O)(=O)c2ccccc2)c1 [Example 149, 3-[2-[2-[2-[3-(Benzenesulfonamido)phenyl]ethoxy]ethoxy]phenyl]propanoic Acid]",–,–,–,–,160%,645%,–
"O=C(O)CCc1ccccc1OCCCCCC1CCC(NS(=O)(=O)c2ccccc2)CC1 (centres unmarked) [Example 166, 3-[2-[5-[4-(Benzenesulfonamido)cyclohexyl]pentoxy]phenyl]propanoic acid]",–,–,–,–,104%,465%,–
